Assay results: patent US20100324303A1, “Use of Tetramic Acid Derivatives for Controlling Animal Pests After Treatment of the Trunk, the Branches, the Influorescences or the Buds” (Bayer CropScience AG, priority 2008, published 2010)
Like-named read-outs stand apart in the source and are kept apart here.

What was measured:
Format in all cases: in vivo
[1] = test system: banana flower thrips (Thrips hawaiiensis); assay: Flower bud injection on banana trees against banana flower thrips; settings: banana cv. Cavendish, 80 ml injected into flower buds, destruction of population on influorescences and bunches, imidacloprid (100 SL) 0.1 g a.i./l, Example (II) (100 OD) 0.3 g a.i./l; for Activity in % Abbott 3 d: 3 days after treatment; for Activity in % Abbott 91 d: 91 days after treatment
Procedure: Banana trees cv. “Cavendish” are treated in three replications against banana flower thrips (Thrips hawaiiensis). Here, the active substances Example (II) (100 OD) are tested versus the commercial standard imidacloprid (100 SL) at the application rates specified. The application is carried out by injecting in each case 80 ml of injection solution into the flower buds. In each case three flower buds are treated. The evaluation is effected 3 and 91 days after the treatment by scoring the destruction of the population on the influorescences and bunches.

[2] = test system: California red scale Aonidiella aurantii; assay: Stem application by painting on to orange trees against California red scale; settings: 205 days after treatment, orange trees cv. Valencia, infestation on the fruits, imidacloprid 2 g a.i./tree, Example (II) (SC 240) 4 g a.i./tree
Procedure: Young orange trees cv. “Valencia” which are approximately 5 years old are treated in three applications against the California red scale Aonidiella aurantii after stem application by painting on the active substances. Here, the active substance (II) (SC 240) is tested versus the commercial standard imidacloprid at the application rates detailed. The evaluation is carried out 205 days after the treatment by scoring the infestation on the fruits.

[3] = test system: pineapple mealybug Dysmicoccus brevipes; assay: Pseudostem (and foliar) spray application on banana trees against pineapple mealybug; settings: banana cv. Cavendish, 50 ml on leaves and 50 ml on peeled stem, mealybug on the stem, Banole oil 30 g/l, chlorpyrifos-methyl 0.8 g/l, (II) SC 240 0.3 g/l in tank mix with 0.025% Hoestick
Procedure: Banana trees (growth stage BBCH 1130) cv. “Cavendish” consisting of mother plant and sucker are treated in three replications following foliar treatment against Aspidiotus destructor and against the pineapple mealybug Dysmicoccus brevipes by pseudostem application. To this end, in each case 100 ml of spray solution are applied, in each case 50 ml being sprayed onto the leaves and 50 ml onto the stem. Before the stem application, the outermost stem layer is first peeled off, which is general practice. Here, the active substance (II) (SC 240) is tested in a tank mix along with 0.025% Hoestick (XL 500) versus the commercial standards chlorpyrifos-methyl (500 EC) and liquid paraffin (Banole oil) (EC 600).
The evaluation is carried out 3, 7, 14 and 22 days after the treatment by scoring the destruction of the pineapple mealybug on the stem.

SMILES | Activity in % Abbott 3 d [1] [% Abbott] | Activity in % Abbott 91 d [1] [% Abbott] | Efficacy (% Abbott) [2] [% Abbott] | inhibition at 300 µg/mL ([3]; SC240, 72 h, 3 days after treatment, read-out: Activity (%) Abbott 3 d) [%] | inhibition at 300 µg/mL ([3]; SC240, 168 h, 7 days after treatment, read-out: Activity (%) Abbott 7 d) [%] | inhibition at 300 µg/mL ([3]; SC240, 336 h, 14 days after treatment, read-out: Activity (%) Abbott 14 d) [%] | inhibition at 300 µg/mL ([3]; SC240, 528 h, 22 days after treatment, read-out: Activity (%) Abbott 22 d) [%]
O=[N+]([O-])NC1=NCCN1Cc1ccc(Cl)nc1 [Imidacloprid, imidacloprid, reference compound] | 98.4 | 100 | 100 |  |  |  | 
CCOC(=O)OC1=C(c2cc(C)ccc2C)C(=O)N[C@]12CC[C@@H](OC)CC2 [Example (II)] | 66.7 | 100 | 100 | 81.2 | 92.3 | 96.4 | 96.7
